Results reported in patent publication US6420367B1, “Pyrimidine derivatives exhibiting antitumor activity” (Shionogo & Co., Ltd., priority 1998, dated 2002).
In brackets after ≈: the same amount, converted by molar mass.

Tests used:
[1] = tested on: DT-R cells (pRRE3-luc-transfected v-ki-ras-transformed NIH3T3 cells); signal derived from Ras oncogene products; experiment: Inhibitory effect against cellular signaling derived from Ras oncogene products: luciferase reporter, dissociation of DT-R from DT-C activity (MAC); type: cell-based, mouse; settings: minimal tested concentration at which luciferase activities of DT-C cells and DT-R cells dissociated
How it was run: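 Value is a minimal active concentration: lowest dose where Ras-responsive reporter (DT-R) luciferase diverges from SV40-minimal-promoter control (DT-C). Both transfected v-Ki-ras NIH3T3 lines received 3-fold serial dilutions for 24 h at 37 °C in 10% FCS medium before lysis and luminometry.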

[2] = tested on: DT-C cells (pGV-P-transfected v-ki-ras-transformed NIH3T3 cells); experiment: Luciferase activity in control DT-C cells (IC50-C): non-specific transcription-inhibitory effect or cytotoxicity; type: cell-based, mouse; settings: tested concentration nearest to 50% inhibition in DT-C cells, index of non-specific transcription inhibition or cytotoxicity
How it was run: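 Luciferase from an SV40 minimal promoter was read in DT-C cells (2500 cells/well) 24 h after compound addition at […] to 0.51 ng/ml in 3-fold steps. IC50-C is the tested concentration nearest 50% inhibition.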

human colon cancer HT29 = experiment: In vitro cell growth inhibition test, MTT assay; type: cell-based; settings: MTT assay 4 days after compound addition
How it was run: (§1)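 Panel of human carcinoma lines, including PANC-1, assessed in vitro; inhibition of cell growth quantified via MTT.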

[3] = tested on: human squamous lung cancer Ma44; experiment: In vitro cell growth inhibition test, MTT assay; type: cell-based; settings: MTT assay 4 days after compound addition
How it was run: as §1

[4] = tested on: human squamous lung cancer RERF-RC-AI; experiment: In vitro cell growth inhibition test, MTT assay; type: cell-based; settings: MTT assay 4 days after compound addition
How it was run: as §1

[5] = tested on: Murine colon cancer Colon 26; experiment: Evaluation of in vivo antitumor efficacy, tumor growth inhibition; set-up: species or system mouse; settings: Colon 26 in Balb/c mice; 30 mg/kg orally daily for 14 days; P<0.01
Excerpt: (§2) Test Example 3 Evaluation of in Vivo Antitumor Efficacy
(§3) Murine colon cancer Colon 26, human lung cancer RERF-LC-AI and human lung cancer Ma44 were used. Murine- and human-derived tumor cells were maintained by serial transplantation in Balb/c and Balb/c nude mice, respectively. After tumor implantation, compound A-42 suspended in 5% methylcellulose solution were orally administered daily for 14 days. Tumor size (short diameter and long diameter) was scored throughout the experiment and tumor volume was calculated. Antitumor efficacy was evaluated as growth inhibition which was estimated by Treated/Control ratio and shown as % inhibition.

human lung cancer Ma44 = experiment: as above; set-up: species or system mouse; settings: Ma44 in Balb/c nude mice; 30 mg/kg orally daily for 14 days; P<0.01
Excerpt: as §2, §3

[6] = tested on: human lung cancer RERF-LC-AI; experiment: as above; settings: RERF-LC-AI in Balb/c nude mice; 30 mg/kg orally daily for 14 days; P<0.01
Excerpt: as §2, §3

[7] = tested on: human lung adenocarcinoma A549; experiment: In vitro cell growth inhibition test, MTT assay; type: cell-based; settings: MTT assay 4 days after compound addition
How it was run: as §1

[8] = tested on: human pancreas cancer PANC-1; experiment: In vitro cell growth inhibition test, MTT assay; type: cell-based; settings: MTT assay 4 days after compound addition
How it was run: as §1

Row | SMILES | MAC (Minimal Active Concentration) [1] [µg/mL] | IC50-C [2] [µg/mL] | IC50, HT29 (human colon cancer HT29) [µg/mL] | IC50, Ma44 [3] [µg/mL] | IC50, RERF-LC-AI [4] [µg/mL] | Growth inhibition (Treated/Control ratio, shown as % inhibition) [5] [%] | Growth inhibition (Treated/Control ratio, shown as % inhibition) (human lung cancer Ma44) [%] | Growth inhibition (Treated/Control ratio, shown as % inhibition) [6] [%] | IC50 ([2]; Mus musculus, NIH3T3) [µg/mL] | IC50 (human colon cancer HT29; Homo sapiens, HT-29, 96 h) [µg/mL] | IC50 ([7]; Homo sapiens, A549, 96 h) [µg/mL] | IC50 ([8]; Homo sapiens, PANC-1, 96 h) [µg/mL] | IC50 ([3]; Homo sapiens, 96 h) [µg/mL] | IC50 ([4]; Homo sapiens, 96 h, read-out: IC50, RERF-LC-AI) [µg/mL] | melting point [°C] | IC50, A549 [7] [µg/mL] | IC50, PANC-1 [8] [µg/mL]
1 | CCNC(=Nc1nc(C)ncc1CSc1nnc(-c2ccc(N)cc2)o1)NCC [Compound A-42] | 0.0137 | >10 | 0.011 (≈ 0.0267 µM) | 0.049 (≈ 0.119 µM) | 0.0083 (≈ 0.0201 µM) | 70 | 66 | 74 |  |  |  |  |  |  |  |  | 
2 | CCN/C(=N\c1nc(C)ncc1CSc1nnc(-c2ccc([N+](=O)[O-])cc2)o1)SC [Compound G-1] | 0.370 |  |  |  |  |  |  |  | > 10 | 0.052 (≈ 0.117 µM) | 0.063 (≈ 0.141 µM) | 0.051 (≈ 0.114 µM) | 0.056 (≈ 0.126 µM) | 0.046 (≈ 0.103 µM) | 156 to 157 |  | 
3 | CCNC(=Nc1nc(C)ncc1CSc1nnc(-c2ccc(N)nc2)o1)NCC [Compound D-6] | 0.370 | >10 | 0.039 (≈ 0.0943 µM) | 0.32 (≈ 0.774 µM) | 0.037 (≈ 0.0895 µM) |  |  |  |  |  |  |  |  |  |  | 0.33 (≈ 0.798 µM) | 0.085 (≈ 0.206 µM)
4 | CCCNC(=Nc1nc(C)ncc1CSc1nnc(-c2ccc(Cl)cc2)o1)NCCC [Compound A-142] | 0.0412 | 1.11 (≈ 2.41 µM) | 0.032 (≈ 0.0696 µM) | 0.021 (≈ 0.0457 µM) | 0.018 (≈ 0.0391 µM) |  |  |  |  |  |  |  |  |  |  | 0.038 (≈ 0.0826 µM) | 0.015 (≈ 0.0326 µM)
5 | CCCNC(=Nc1nc(CC)ncc1CSc1nnc(-c2ccc(F)cc2N)o1)NCCC [Compound A-140] | 0.0137 | 3.33 (≈ 7.05 µM) | 0.013 (≈ 0.0275 µM) | 0.047 (≈ 0.0995 µM) | 0.015 (≈ 0.0317 µM) |  |  |  |  |  |  |  |  |  |  | 0.022 (≈ 0.0466 µM) | 0.012 (≈ 0.0254 µM)
6 | CNC(=Nc1nc(C)ncc1CSc1nnc(-c2ccc([N+](=O)[O-])cc2OC)o1)NC [Compound A-162] | 0.123 | >10 | 0.0067 (≈ 0.0151 µM) | 0.014 (≈ 0.0315 µM) | 0.0085 (≈ 0.0191 µM) |  |  |  |  |  |  |  |  |  |  | 0.028 (≈ 0.063 µM) | 0.0093 (≈ 0.0209 µM)
7 | CCNC(=Nc1nc(C)ncc1CSc1nnc(-c2ccc(N)cc2F)o1)NCC [Compound A-81] | 0.0412 | >10 | 0.007 (≈ 0.0163 µM) | 0.032 (≈ 0.0743 µM) | 0.009 (≈ 0.0209 µM) |  |  |  |  |  |  |  |  |  |  | 0.023 (≈ 0.0534 µM) | 0.016 (≈ 0.0372 µM)
8 | CCNC(=Nc1nc(CC)ncc1CSc1nnc(-c2ccc([N+](=O)[O-])cc2)o1)NCC [Compound A-131] | 0.0412 | >10 | 0.025 (≈ 0.0548 µM) | 0.028 (≈ 0.0613 µM) | 0.015 (≈ 0.0329 µM) |  |  |  |  |  |  |  |  |  |  | 0.03 (≈ 0.0657 µM) | 0.028 (≈ 0.0613 µM)
9 | CCNC(=Nc1nc(C)ncc1CSc1nnc(-c2ccc([N+](=O)[O-])cc2OC)o1)NCC [Compound A-161] | 0.0412 | >10 | 0.0055 (≈ 0.0116 µM) | 0.0071 (≈ 0.015 µM) | 0.0068 (≈ 0.0144 µM) |  |  |  |  |  |  |  |  |  |  | 0.012 (≈ 0.0254 µM) | 0.0053 (≈ 0.0112 µM)
10 | CCNC(=Nc1nc(C)ncc1CSc1nnc(-c2ccc(N)c(O)c2)o1)NCC [Compound A-89] | 0.123 | >10 | 0.05 (≈ 0.117 µM) | 0.86 (≈ 2.01 µM) | 0.016 (≈ 0.0373 µM) |  |  |  |  |  |  |  |  |  |  | 0.15 (≈ 0.35 µM) | 0.049 (≈ 0.114 µM)
11 | CCCNC(=Nc1nc(CC)ncc1CSc1nnc(-c2ccc([N+](=O)[O-])cc2)o1)NCC [Compound A-149] | 0.123 | 3.33 (≈ 7.08 µM) | 0.034 (≈ 0.0723 µM) | 0.085 (≈ 0.181 µM) | 0.026 (≈ 0.0553 µM) |  |  |  |  |  |  |  |  |  |  | 0.025 (≈ 0.0531 µM) | 0.041 (≈ 0.0871 µM)
12 | CCNC(=Nc1nc(C)ncc1CSc1nnc(-c2ccc([N+](=O)[O-])cc2)o1)NCC(F)(F)F [Compound A-175] | 0.0137 | 3.33 (≈ 6.71 µM) | 0.01 (≈ 0.0201 µM) | 0.015 (≈ 0.0302 µM) | 0.0053 (≈ 0.0107 µM) |  |  |  |  |  |  |  |  |  |  | 0.017 (≈ 0.0342 µM) | 0.01 (≈ 0.0201 µM)
13 | CCNC(=Nc1ncncc1CSc1nnc(-c2ccccc2N)o1)NCC [Compound A-33] | 0.0137 | >10 | 0.0071 (≈ 0.0178 µM) | 0.0087 (≈ 0.0218 µM) | 0.004 (≈ 0.01 µM) |  |  |  |  |  |  |  |  |  |  | 0.012 (≈ 0.0301 µM) | 0.0076 (≈ 0.0191 µM)
14 | CCc1ncc(CSc2nnc(-c3ccc(N)cc3)o2)c(N=C(NC)NC)n1 [Compound A-153] | 0.0412 | >10 | 0.015 (≈ 0.0376 µM) | 0.089 (≈ 0.223 µM) | 0.011 (≈ 0.0276 µM) |  |  |  |  |  |  |  |  |  |  | 0.067 (≈ 0.168 µM) | 0.022 (≈ 0.0552 µM)
15 | CCNC(=Nc1ncncc1CSc1nnc(-c2ccncc2N)o1)NCC [Compound D-37] | 0.123 | >10 | 0.015 (≈ 0.0375 µM) | 0.024 (≈ 0.0601 µM) | 0.011 (≈ 0.0275 µM) |  |  |  |  |  |  |  |  |  |  | 0.028 (≈ 0.0701 µM) | 0.013 (≈ 0.0325 µM)
16 | CCNC(=Nc1nc(C)ncc1CSc1nnc(-c2ccc([N+](=O)[O-])cc2)o1)NC [Compound A-133] | 0.0137 | >10 | 0.068 (≈ 0.159 µM) | 0.015 (≈ 0.035 µM) | 0.01 (≈ 0.0233 µM) |  |  |  |  |  |  |  |  |  |  | 0.047 (≈ 0.11 µM) | 0.015 (≈ 0.035 µM)
